Measured values reported in PubChem BioAssay AID1259408 (Genetic Toxicology Data Bank (GENE-TOX), 2018).
Active and inactive are the calls of the source. How the calls were made is not given here.

System: GENE-TOX genotoxicity assays, various organisms and cells
Test: GENE-TOX mutagenicity studies
Conditions: for call: Assay Type: In vivo carcinogenicity studies
[1] = Species/Cell Type: Saccharomyces cerevisiae, Assay Type: Reverse gene mutation, Assay Code: YERT, Evaluation Type: Evaluation A (Pre-1980)
[2] = Species/Cell Type: Salmonella typhimurium (one or more of the five standard strains: TA98, TA100, TA1535, TA1537, and TA1538), Assay Type: Histidine reverse gene mutation, Ames assay, Assay Code: SAL+*, Activation: With metabolic activation, Evaluation Type: Evaluation A (Pre-1980)
[3] = Species/Cell Type: Nonhuman, Assay Code: CCG+, Evaluation Type: Evaluation A (Pre-1980)
[4] = Species/Cell Type: Nonhuman, Assay Type: Sister-chromatid exchange (SCE) in vivo, Assay Code: SC3T, Evaluation Type: Evaluation B (Post-1980)
[5] = Species/Cell Type: Bacillus subtilis (H17 vs M45), Assay Type: Rec-assay, spot test, DNA effects (bacterial DNA repair), Assay Code: REW+, Evaluation Type: Evaluation A (Pre-1980)
[6] = Species/Cell Type: Salmonella typhimurium, Assay Type: Forward and reverse gene mutation, host-mediated assay, Assay Code: HMA+, Evaluation Type: Evaluation A (Pre-1980)
[7] = Species/Cell Type: Drosophila melanogaster, Assay Type: Sex-linked recessive lethal gene mutation, Assay Code: SRLT, Evaluation Type: Evaluation A (Pre-1980)
[8] = Species/Cell Type: Salmonella typhimurium (one or more of the five standard strains: TA98, TA100, TA1535, TA1537, and TA1538), Assay Type: Histidine reverse gene mutation, Ames assay, Assay Code: SALT, Evaluation Type: Evaluation A (Pre-1980)

O=C(/C=C/c1ccc([N+](=O)[O-])o1)NC1CCCCC1
mutagenic call (Species/Cell Type: Neurospora crassa, Assay Type: Forward gene mutation, Assay Code: NEF-, Evaluation Type: Evaluation A (Pre-1980)): inactive; negative

CCN(CC)Cc1cc(Br)ccc1OCC(=O)N/N=C/c1ccc(O)c(OC)c1
mutagenic call [1]: no conclusion

CC1CCc2c1ccc1c2ccc2ccccc21 (centres undefined)
mutagenic call [2]: active; positive

CN(C)Cc1cc(Br)ccc1OCC(=O)N/N=C/c1ccccc1O
mutagenic call [1]: no conclusion

CC(=O)[O-].CC(=O)[O-].CC(=O)[O-].CC(=O)[O-].[Pb+2]
call [3]: active; positive

CCCCCCO
mutagenic call [4]: no conclusion

FC(F)(Cl)Br
mutagenic call (Species/Cell Type: Mammalian polychromatic erythrocytes, Assay Type: Micronucleus test, chromosome aberrations, Assay Code: MNT-, Evaluation Type: Evaluation B (Post-1980)): inactive; negative

Cl[Te](Cl)(Cl)Cl
mutagenic call [5]: active; positive

C/C=C/c1cn([C@H]2C[C@H](O)[C@@H](CO)O2)c(=O)[nH]c1=O
mutagenic call (Species/Cell Type: Human, Assay Type: Sister-chromatid exchange (SCE) in vitro, Assay Code: SC1+D, Dose Response: With dose response, Evaluation Type: Evaluation B (Post-1980)): active; positive

[2H]C1([2H])CNP(=O)(N(CCCl)CCCl)OC1 (centres undefined)
mutagenic call (Species/Cell Type: Nonhuman, Assay Type: Sister-chromatid exchange (SCE) in vitro, Assay Code: SC2+D*, Activation: With metabolic activation, Dose Response: With dose response, Evaluation Type: Evaluation B (Post-1980)): active; positive

CC(C)NCC1CCc2cc(CO)c([N+](=O)[O-])cc2N1 (centres undefined)
mutagenic call (Species/Cell Type: Rodents, Sex: Male, Assay Type: Dominant lethal test, Assay Code: DLT-, Evaluation Type: Evaluation A (Pre-1980)): inactive; negative
mutagenic call (Species/Cell Type: Salmonella typhimurium (one or more of the five standard strains: TA98, TA100, TA1535, TA1537, and TA1538), Assay Type: Histidine reverse gene mutation, Ames assay, Assay Code: SAL+, Evaluation Type: Evaluation A (Pre-1980)): active; positive
mutagenic call (Species/Cell Type: Salmonella typhimurium, Assay Type: Forward and reverse gene mutation, body fluid assay, Assay Code: BFU+, Evaluation Type: Evaluation A (Pre-1980)): active; positive
mutagenic call [6]: active; positive

CCCCNC(=O)NS(=O)(=O)c1ccc(N)cc1
mutagenic call [4]: no conclusion

CCN(CC)C(=S)SSC(=S)N(CC)CC
mutagenic call (Species/Cell Type: Mammalian polychromatic erythrocytes, Assay Type: Micronucleus test, chromosome aberrations, Assay Code: MNTT, Evaluation Type: Evaluation B (Post-1980)): no conclusion
call (Species/Cell Type: Nonhuman, Assay Code: CCG-, Evaluation Type: Evaluation A (Pre-1980)): inactive; negative

c1ccc2nccnc2c1
mutagenic call (Species/Cell Type: Mouse, Sex: Male, Assay Type: Sperm morphology, Assay Code: SPI-, Evaluation Type: Evaluation A (Pre-1980)): inactive; negative

CN(N=O)C(=O)Nc1ccc(F)cc1
mutagenic call (Species/Cell Type: Nonhuman, Assay Type: Sister-chromatid exchange (SCE) in vitro, Assay Code: SC2+D, Dose Response: With dose response, Evaluation Type: Evaluation B (Post-1980)): active; positive

S=C(NC1CCCCC1)NC1CCCCC1
mutagenic call (Species/Cell Type: Fischer rat embryo (RLV/1706) cells, Assay Type: Cell transformation, viral enhanced, Assay Code: CTR+, Evaluation Type: Evaluation A (Pre-1980)): active; positive

[Cl][Ir-2]([Cl])([Cl])([Cl])([Cl])[Cl]
mutagenic call [5]: active; positive

C/[N+]([O-])=N/CO[C@@H]1O[C@H](CO)[C@@H](O)[C@H](O)[C@H]1O
mutagenic call [7]: no conclusion
call [3]: active; positive
mutagenic call (Species/Cell Type: Salmonella typhimurium (one or more of the five standard strains: TA98, TA100, TA1535, TA1537, and TA1538), Assay Type: Histidine reverse gene mutation, Ames assay, Assay Code: SAL-, Evaluation Type: Evaluation A (Pre-1980)): inactive; negative
mutagenic call [6]: active; positive

CC[n+]1c(-c2ccccc2)c2cc(N=[N+]=[N-])ccc2c2ccc(N)cc21
mutagenic call [8]: no conclusion

N
mutagenic call [7]: no conclusion

O[C@@H]([C@H](O)[C@H](O)CBr)[C@H](O)CBr
mutagenic call (Species/Cell Type: Nonhuman, Assay Type: Sister-chromatid exchange (SCE) in vivo, Assay Code: SC3+D, Dose Response: With dose response, Evaluation Type: Evaluation B (Post-1980)): active; positive

CCCCC=O
mutagenic call (Species/Cell Type: Human lymphocytes, Assay Type: Sister-chromatid exchange (SCE) in vitro, Assay Code: SCL+, Evaluation Type: Evaluation B (Post-1980)): active; positive
mutagenic call (Species/Cell Type: Human, Assay Type: Sister-chromatid exchange (SCE) in vitro, Assay Code: SC1+, Evaluation Type: Evaluation B (Post-1980)): active; positive

Cc1ccc2cc3c(ccc4ccccc43)c3c2c1CC3O (centres undefined)
mutagenic call (Species/Cell Type: Chinese hamster lung (V79) cells, Assay Type: Forward gene mutation at the HPRT or ouabain locus, Assay Code: V79+, Evaluation Type: Evaluation A (Pre-1980)): active; positive
call (Species/Cell Type: Nonhuman, Assay Code: CCG+L, Evaluation Type: Evaluation A (Pre-1980)): active; positive
mutagenic call [2]: active; positive

O=CNc1nc(-c2ccc([N+](=O)[O-])[nH]2)cs1
mutagenic call [8]: no conclusion
